Patent publication US20250059231A1, “Protease inhibitors” (priority 2021, published 2025)
Where a name gives a salt, the structure may show the parent alone. Read-outs that look alike come from different tables or passages of the source. Where a SMILES comes first, the peptide text is derived from it. [ ]: non-standard residue; d: D form. The star is where a group is joined. Phe(4-guanidino) = N=C(N)Nc1ccc(C[C@H](N)C(=O)O)cc1; Benzoyl(4-Ph) = O=C(c1ccc(-c2ccccc2)cc1)*; Palmitoyl = CCCCCCCCCCCCCCCC(=O)*; NHhexadecyl = CCCCCCCCCCCCCCCCN*; 3Pal = N[C@@H](Cc1cccnc1)C(=O)O; 4Pal = N[C@@H](Cc1ccncc1)C(=O)O; X2 = O=C(c1ccc(-c2cccs2)s1)*; β3hK = NCCCC[C@H](N)CC(=O)O; X1 = FC(F)(F)c1ccc(CN*)cc1; Pip = O=C(O)[C@@H]1CCCCN1; Octanoyl = CCCCCCCC(=O)*; NHOctyl = CCCCCCCCN*; Propionyl = CCC(=O)*; X3 = COc1cccc(CN*)c1; NHPr = CCCN*

Target: T1, DENV protease (Dengue virus type 2, UniProt P29990)
T1 construct: The virus-encoded dengue protease comprises the amino-terminal 180 amino acids of NS3 (NS3pro) of the polyprotein
T1 sequence (P29990 1398-1437): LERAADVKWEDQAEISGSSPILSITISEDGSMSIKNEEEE
T1 sequence (P29990 1476-1653): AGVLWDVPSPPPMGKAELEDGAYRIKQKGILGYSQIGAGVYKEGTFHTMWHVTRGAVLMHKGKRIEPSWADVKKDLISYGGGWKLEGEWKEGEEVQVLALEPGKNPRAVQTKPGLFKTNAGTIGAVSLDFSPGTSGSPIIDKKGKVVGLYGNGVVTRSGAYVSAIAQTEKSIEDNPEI
Experiment: biochemical
Details: read-out: inhibition of DENV
Procedure: Dilutions were made starting from 10 mM stock solutions in DMSO and final concentrations were measured in triplicates. The inhibitors were preincubated for 15 min with DENV protease (100 nM) in the assay buffer (50 mM Tris-HCl pH 9.0, ethylene glycol (10% v/v), and 0.0016% Brij 58). The enzymatic reaction was initiated by the addition of the FRET substrate (final concentration 50 μM) to obtain a final assay volume of 100 μL per well. The enzymatic activity was monitored for 15 min and determined as a slope of relative fluorescence units per second (RFU/s) for each concentration. The mean of the triplicates were plotted against the corresponding concentration in CDDVault to determine the IC50-values. Analogous procedures were used to determine the inhibitory potency on WNV (Kühl et al., J. Med. Chem. 2020, 63 (15): 8179-8197) and ZIKA protease (Nitsche et al., ACS Med. Chem. Lett. 2019 Feb. 14; 10 (2): 168-174). For selectivity screening of active candidates, similar biochemical assays with human serine proteases trypsin (Weigel et al., J. Med. Chem. 2015, 58 (19), 7719-7733.) and/or thrombin (Nitsche et al., J. Med. Chem. 2013, 56 (21), 8389-8403) were used.

Row | SMILES | inhibition at 50 µM (at 50 μM) [%] | inhibition at 50 µM [%]
1 | CCCCCCCCCCCCCCCC(=O)N[C@@H](CCCCN)C(=O)N1CCC[C@H]1C(=O)N[C@@H](C)C(=O)N[C@@H](CCCCN)c1nnc(C)o1 [compound 1] | ≥ 25 | 
2 | CCCCCCCCCCCCCCCC(=O)N[C@@H](CCCCN)C(=O)N[C@@H](C)C(=O)N[C@@H](C)C(=O)N[C@H](CCCCN)c1nnc(C)o1 [compound 2] | ≥ 25 | 
3 | CCCCCCCCCCCCCCCC(=O)N[C@@H](CCCCN)C(=O)N[C@@H](C)C(=O)N[C@@H](C)C(=O)N[C@H](CCc1ccccc1)c1nnc(C)o1 [compound 3] | ≥ 25 | 
4 | CCCCCCCCCCCCCCCC(=O)N[C@@H](CCCCN)C(=O)N1CCC[C@H]1C(=O)N[C@@H](C)C(=O)N[C@@H](CCc1ccccc1)c1nnc(C)o1 [compound 4] | ≥ 25 | 
5 | CCCCCCCCCCCCCCCC(=O)N[C@@H](C)C(=O)N1C[C@@H](Oc2ccncc2)C[C@H]1C(=O)N[C@@H](C)C(=O)N[C@@H](CCCCN)C(N)=O [compound 7] | ≥ 25 | 
6 | CCCCCCCCCCCCCCCC(=O)N[C@@H](CCCCN)C(=O)N1CCC[C@H]1C(=O)N[C@@H](Cc1cnc[nH]1)C(=O)N[C@@H](CCCCN)C(N)=O [compound 12] (Palmitoyl-KPHK-NH2) | ≥ 25 | 
7 | CCCCCCCCCCCCCCCC(=O)N[C@@H](CCCCN)C(=O)N1CCCC[C@H]1C(=O)N[C@@H](Cc1cnc[nH]1)C(=O)N[C@@H](CCCCN)C(N)=O [compound 14] (Palmitoyl-K[Pip]HK-NH2) | ≥ 25 | 
8 | CCCCCCCCCCCCCCCC(=O)N[C@@H](CCCCN)C(=O)N1CCCC[C@H]1C(=O)N[C@@H](C)C(=O)N[C@@H](CCCCN)C(N)=O [compound 15] (Palmitoyl-K[Pip]AK-NH2) | ≥ 25 | 
9 | CCCCCCCCNC(=O)[C@H](CCCCN)NC(=O)[C@H](CCCCN)NC(=O)[C@H](CCCCN)NC(=O)[C@H](CC(C)C)NC(=O)CCCCCCC [compound 19] (Octanoyl-LKKK-NHOctyl) | ≥ 25 | 
10 | CCCNC(=O)[C@H](CCCCN)NC(=O)[C@H](CCCCN)NC(=O)[C@H](CCCCN)NC(=O)[C@H](C)NC(=O)CC [compound 21] (Propionyl-AKKK-NHPr) | ≥ 25 | 
11 | CCCNC(=O)[C@H](CCCCN)NC(=O)[C@H](CCCCN)NC(=O)[C@H](CCCCN)NC(=O)[C@H](Cc1ccccc1)NC(=O)CC [compound 23] (Propionyl-FKKK-NHPr) | ≥ 25 | 
12 | CCCCCCCCNC(=O)[C@H](CCCCN)NC(=O)[C@H](C)NC(=O)[C@H](CCCCN)NC(=O)[C@H](CC(C)C)NC(=O)CCCCCCC [compound 25] (Octanoyl-LKAK-NHOctyl) | ≥ 25 | 
13 | CCCCCCCCNC(=O)[C@H](CCCCN)NC(=O)[C@H](CCCNC(=N)N)NC(=O)[C@H](C)NC(=O)[C@H](CCCNC(=N)N)NC(=O)CCCCCCC [compound 29] (Octanoyl-RARK-NHOctyl) | ≥ 25 | 
14 | CCCCCCCCCCCCCCCCNC(=O)[C@H](CCCCN)NC(=O)[C@H](CCC(N)=O)NC(=O)[C@H](CCCNC(=N)N)NC(=O)[C@H](C)N [compound 32] (H-ARQK-NHhexadecyl) | ≥ 25 | 
15 | COc1cccc(CNC(=O)[C@H](CCCCN)NC(=O)[C@H](CCC(N)=O)NC(=O)[C@H](CCCNC(=N)N)NC(=O)[C@H](C)NC(=O)c2ccc(-c3cccs3)s2)c1 [compound 36] (X2-ARQK-X3) | ≥ 25 | 
16 | C[C@H](NC(=O)c1ccc(-c2ccccc2)cc1)C(=O)N[C@@H](CCCNC(=N)N)C(=O)N[C@@H](CCC(N)=O)C(=O)N[C@@H](CCCCN)C(N)=O [compound 37] ({Benzoyl(4-Ph)}-ARQK-NH2) | ≥ 25 | 
17 | C[C@H](NC(=O)c1ccc(-c2ccccc2)cc1)C(=O)N[C@@H](CCCNC(=N)N)C(=O)N[C@@H](CCC(N)=O)C(=O)N[C@@H](CCCCN)C(=O)NCc1ccc(C(F)(F)F)cc1 [compound 38] ({Benzoyl(4-Ph)}-ARQK-X1) | ≥ 25 | 
18 | CCCCCCCCCCCCCCCC(=O)N[C@@H](CCCNC(=N)N)C(=O)N[C@@H](CCC(N)=O)C(=O)N[C@@H](CCCCN)C(N)=O [compound 40] (Palmitoyl-Arg-Gln-Lys-NH2) | ≥ 25 | 
19 | CCCCCCCCCCCCCCCC(=O)N[C@@H](CCCNC(=N)N)C(=O)N[C@@H](CCC(N)=O)C(=O)N[C@@H](CCCCN)C(=O)c1ccccc1 [compound 42] | ≥ 25 | 
20 | CCCCCCCCCCCCCCCC(=O)N[C@@H](CCCNC(=N)N)C(=O)N[C@@H](CCC(N)=O)C(=O)N[C@@H](Cc1ccccc1)C(=O)O [compound 45] (Palmitoyl-Arg-Gln-Phe-OH) | ≥ 25 | 
21 | CCCCCCCCCCCCCCCC(=O)N[C@@H](Cc1c[nH]cn1)C(=O)N[C@@H](CCC(N)=O)C(=O)N[C@@H](Cc1ccccc1)C(N)=O [compound 52] (Palmitoyl-His-Gln-Phe-NH2) | ≥ 25 | 

Row | SMILES | inhibition at 50 µM (at 50 μM) [%] | inhibition at 50 µM [%]
22 | CCCCCCCCCCCCCCCC(=O)N[C@@H](CCc1c[nH]c(N)n1)C(=O)N[C@@H](CCC(N)=O)C(=O)N[C@@H](Cc1ccccc1)C(N)=O [compound 55, (S)—N1—((S)-1-amino-1-oxo-3-phenylpropan-2-yl)-2-((S)-4-(2-amino-1H-imidazol-4-yl)-2-palmitamidobutanamido)pentanediamide TFA salt] |  | ≥ 25
23 | CCCCCCCCCCCCCCCC(=O)N[C@@H](CCCc1c[nH]c(N)n1)C(=O)N[C@@H](CCC(N)=O)C(=O)N[C@@H](Cc1ccccc1)C(N)=O [compound 56] | ≥ 25 | 
24 | CCCCCCCCCCCCCCCC(=O)N[C@@H](CCc1ccncc1)C(=O)N[C@@H](CCC(N)=O)C(=O)N[C@@H](Cc1ccccc1)C(N)=O [compound 57] | ≥ 25 | 
25 | CCCCCCCCCCCCCCCC(=O)N[C@@H](CCc1c[nH]cn1)C(=O)N[C@@H](CCC(N)=O)C(=O)N[C@@H](Cc1ccccc1)C(N)=O [compound 59] | ≥ 25 | 
26 | CCCCCCCCCCCCCCCC(=O)N[C@@H](CCCNC(=N)N)C(=O)N[C@@H](CCC(N)=O)C(=O)N[C@@H](Cc1ccccc1)B(O)O [compound 60] | ≥ 25 | 
27 | CC(=O)N[C@@H](C)C(=O)N[C@@H](CCCNC(=N)N)C(=O)N[C@@H](CCC(N)=O)C(=O)N[C@@H](Cc1ccccc1)B(O)O [compound 61] | ≥ 25 | 
28 | CCCCCCCCCCCCCCCC(=O)N[C@@H](Cc1c[nH]c(N)n1)C(=O)N[C@@H](CCC(N)=O)C(=O)N[C@@H](Cc1ccccc1)C(N)=O [compound 62] | ≥ 25 | 
29 | CCCCCCCCCCCCCCCC(=O)N[C@@H](Cc1ccncc1)C(=O)N[C@@H](CCC(N)=O)C(=O)N[C@@H](Cc1ccccc1)C(N)=O [compound 63] (Palmitoyl-[4Pal]-Gln-Phe-NH2) | ≥ 25 | 
30 | CCCCCCCCCCCCCCCC(=O)N[C@@H](Cc1cccnc1)C(=O)N[C@@H](CCC(N)=O)C(=O)N[C@@H](Cc1ccccc1)C(N)=O [compound 64] (Palmitoyl-[3Pal]-Gln-Phe-NH2) | ≥ 25 | 
31 | CCCCCCCCCCCCCCCC(=O)N[C@@H](CCCNc1ncc[nH]1)C(=O)N[C@@H](CCC(N)=O)C(=O)N[C@@H](Cc1ccccc1)C(N)=O [compound 65] | ≥ 25 | 
32 | CCCCCCCCCCCCCCCC(=O)N[C@@H](CCNc1ncc[nH]1)C(=O)N[C@@H](CCC(N)=O)C(=O)N[C@@H](Cc1ccccc1)C(N)=O [compound 66] | ≥ 25 | 
33 | CCCCCCCCCCCCCCCC(=O)N[C@@H](Cc1cccc(NC(=N)N)c1)C(=O)N[C@@H](CCC(N)=O)C(=O)N[C@@H](Cc1ccccc1)C(N)=O [compound 67] | ≥ 25 | 
34 | CCCCCCCCCCCCCCCC(=O)N[C@@H](Cc1ccc(NC(=N)N)cc1)C(=O)N[C@@H](CCC(N)=O)C(=O)N[C@@H](Cc1ccccc1)C(N)=O [compound 68] (Palmitoyl-[Phe(4-guanidino)]-Gln-Phe-NH2) | ≥ 25 | 
35 | CCCCCCCCCCCCCCCC(=O)N[C@@H](C)CC(=O)N[C@@H](CCCNC(=N)N)C(=O)N[C@@H](CCC(N)=O)CC(=O)N[C@@H](CCCCN)C(N)=O [compound 72] | ≥ 25 | 
36 | C[C@H](NC(=O)[C@H](CCCCN)NC(=O)c1ccc(-c2ccccc2)cc1)C(=O)N[C@@H](CCCCN)CC(=O)NCc1ccc(C(F)(F)F)cc1 [compound 78] |  | ≥ 25
37 | CCCCCCCCCCCCCCCC(=O)N[C@@H](CCCCN)CC(=O)N[C@@H](C)C(=O)N[C@@H](C)C(=O)N[C@@H](CCCCN)C(N)=O [compound 82] (Palmitoyl-[β3hK]AAK-NH2) | ≥ 25 | 
38 | CCCCCCCCCCCCCCCCNC(=O)[C@H](CCCCN)NC(=O)C[C@H](C)NC(=O)[C@H](C)NC(=O)C[C@@H](N)CCCCN [compound 83] | ≥ 25 | 
39 | C[C@H](NC(=O)[C@H](C)NC(=O)[C@H](CCCCN)NC(=O)c1ccc(-c2ccccc2)cc1)C(=O)N[C@@H](CCCCN)C(=O)NCc1ccc(C(F)(F)F)cc1 [compound 89] ({Benzoyl(4-Ph)}-KAAK-X1) | ≥ 25 | 
40 | CCCCCCCCCCCCCCCC(=O)N[C@@H](CCCCN)CC(=O)N[C@@H](C)C(=O)N[C@@H](C)CC(=O)N[C@H](CCc1ccccc1)C(N)=O [compound 91] | ≥ 25 | 
41 | CCCCCCCCCCCCCCCC(=O)N[C@@H](CCCCN)C(=O)N[C@@H](C)C(=O)N[C@@H](C)C(=O)N[C@H](Cc1c[nH]c2ccccc12)C(N)=O [compound 93] (Palmitoyl-KAA[dW]-NH2) | ≥ 25 | 
42 | CCCCCCCCCCCCCCCC(=O)N[C@@H](CCCCN)C(=O)N[C@@H](C)C(=O)N[C@@H](CCCCN)C(N)=O [compound 97] (Palmitoyl-Lys-Ala-Lys-NH2) | ≥ 25 | 
